The values below come from patent publication US7112422B2, “Fluorometric assay for detecting nucleic acid cleavage” (Georgetown University, priority 1994, dated 2006).

{FITC} = fluorescein isothiocyanate through the Aminolink 2 six-carbon amine linker

Series [1] addresses T1, BamHI restriction endonuclease (Bacillus amyloliquefaciens, UniProt P23940).
T1 construct: purchased New England Biolab
Nature of the series: BamHI cleavage of FITC-labeled DNA substrate, native 20% PAGE with densitometry. Type of series: biochemical, Bacillus amyloliquefaciens H. The following applies: 10 units BamHI in 100 μl, 37° C. As for the experimental part: (§1) Cleavage reactions were also examined as a function of substrate concentration with a fixed concentration of BamHI (10 units in 100 μl total reaction volume). The reactions were initiated by the addition of BamHI and stopped by the addition of 25 mM EDTA 11 minutes after the enzyme was added. The reaction mixtures were subjected to native 20% polyacrylamide gel analysis. Since the DNA substrate was labeled with FITC, a photograph of the gel was taken under ultraviolet illumination (using a Kodak green filter) without staining the gel with ethidium bromide. Therefore, only the fluorescent-labeled DNA fragments were visualized, resulting in two DNA bands: a substrate band and a product band (5′-FITC-NH-CCCCG). A direct comparison was made between the data obtained from the fluorometric assay and the photographic data obtained from gel electrophoretic analysis. The kinetics of BamHI cleavage reactions as a function of DNA substrate concentration measured by fluorometric analysis are illustrated in FIG. 7A. […] Similarly, the reaction at 0.36 μM substrate reached near completion as shown by both the fluorescence (curve B, FIG. 7A) and the gel data (lane B, FIG. 7B). Higher DNA substrate concentrations, 0.72 μM (curve C, FIG. 7A) and 1.08 μM (curve D, FIG. 7A), yielded incomplete cleavage reactions (observed by changes in fluorescence intensity). […] It appears that the initial velocity of curve D is also slower than that of curve C. […] As expected, the PAGE data (FIG. 7B) show higher product formation in lane C compared to that of lane D.
The fractions of uncleaved and cleaved DNA were calculated from the fluorescence data utilizing equation 1 (see Methods). Fractions of uncleaved and cleaved DNA were also estimated from a photograph taken from the polyacrylamide gel. Utilizing a Hewlett Packard ScanJet IIp and the densitometry program Scan Analysis 68000 (BioSoft), the peaks obtained from each of the bands (substrate and products) were integrated and ratioed to obtain the relative amount of cleavage.

In series [2] the target is T1, BamHI restriction endonuclease. Nature of the series: BamHI cleavage of FITC-labeled DNA substrate, continuous fluorometric (dequenching) assay. The format is biochemical, Bacillus amyloliquefaciens H. The following applies: 10 units BamHI in 100 μl, 37° C. The protocol:
Spectroscopic Measurements: Absorbance and absorption spectra were measured with a Hewlett-Packard 8450A diode array spectrophotometer. Using the extinction coefficient of fluorescein (E-78,000) at 492 nm, the concentration and total moles of fluorescein were calculated (Chen and Scott, supra). The amount of fluorescein conjugated to the oligonucleotide was estimated by subtracting the moles of fluorescein multiplied by the extinction coefficient of FITC at 260 nm, 23,000 M^−1 cm^−1, from the total absorbance at 260 nm. The remaining AU260 should be proportional to the DNA content. Steady-state fluorescence spectra and intensity were recorded with an SLM 8000 spectrophotofluorometer with 10-mm Glan-Thompson polarizers. Fluorescence emission measurements were performed under “magic angle” emission conditions (Spencer and Weber, J. Chem. Phys. 52:1654–1663 (1970)). A cuvette with a 3-mm excitation path length was used for all experiments. The absorbance of all fluorescence samples was less than 0.1 at the wavelength of excitation to avoid inner-filter effects. The temperatures of the samples were regulated with a Neslab Instruments, Inc., T.E.Q. temperature controller and a PBC4 bath cooler.
The extent of cleavage by BamHI was calculated from the fluorescence data utilizing the following equation:
[formula] where [DNA]c is the concentration of cleaved DNA, Ft is the fluorescence intensity at time, t, F∞is the fluorescence intensity at the plateau, F0 is the initial fluorescence intensity, and [DNA]i is the initial concentration of DNA. Results and Discussion
as §1
The fractions of uncleaved and cleaved DNA were calculated from the fluorescence data utilizing equation 1 (see Methods). Fractions of uncleaved and cleaved DNA were also estimated from a photograph taken from the polyacrylamide gel. […]

Another series addresses T2, HIV-IN (Human immunodeficiency virus type 1 group M subtype B, UniProt P12497).
T2 construct: The wild-type HIV-integrase protein was obtained from Dr. Robert Craigie; made in house; host or cells: Escherichia coli
Description: HIV-IN cleavage of fluorogenic substrate monitored by FRET. The format is biochemical. As for the experimental part:
FIGS. 10A and 10B: FIG. 10A is a graph depicting steady-state emission spectra of a fluorogenic substrate in the presence and absence of HIV-IN. Curve A depicts the emission spectrum of 4 pmol of fluorogenic substrate in 400 μl reaction buffer containing 25 mM HEPES, pH 7.5, 50 mM NaCl, 2 mM DTT, and 5% glycerol at 37° C. Curve B depicts the emission spectrum of the same substrate digested with 40 pmol HIV-IN for 1 hour. Curve C depicts the difference emission spectrum of curve B and curve A. Emission spectra were recorded with an excitation wavelength at 460 nm.
FIGS. 11A, 11B, and 11C: FIG. 11A is a graph depicting the kinetics of an HIV-IN cleavage reaction of a fluorogenic substrate monitored by FRET. The DNA cleavage reaction was initiated by the addition of HIV-IN to a preincubated reaction mixture containing 4 pmol of substrate. The conditions for the reactions are the same as in FIG. 10. Changes in fluorescence intensity were monitored with excitation and emission wavelengths of 460 and 510 nm, respectively. Mn^2+ quenched the fluorescence intensity of the substrate in the absence of the enzyme; thus, the kinetic data presented in this figure were intensity normalized according to the intensity ratio of the substrate in the presence of Mg^2+ and in the presence of Mn^2+. FIG. 11B depicts the kinetics of an HIV-IN cleavage reaction of a fluorogenic substrate monitored by denaturing polyacrylamide gel electrophoresis (PAGE). The time course of a ^32P-5′-labeled fluorescent substrate was determined by radiographic assays. […] Reaction mixtures were analyzed by denaturing gel electrophoresis. Results were quantitated by utilizing a Hewlet-Packard ScanJet IIp and the densitometry program Scan Analysis 68020 (BioSoft). […]
Spectroscopic Measurements: Absorbance and absorption spectra were measured with a Hewlett-Packard 8450A diode array spectrophotometer. Steady-state fluorescence spectra and intensity were recorded with an SLM 8000 spectrophotofluorometer with 10-mm Glan-Thompson polarizers. […]

Setting [3] is: Curve A, [DNA] 0.21 μM, stopped after 11 minutes.
[4] abbreviates: Curve B, [DNA] 0.36 μM, stopped after 11 minutes.
The mark [5] stands for this setting: Curve C, [DNA] 0.72 μM, stopped after 11 minutes.
The mark [6] stands for this setting: Curve D, [DNA] 1.08 μM, stopped after 11 minutes.
Where [7] appears, read: Curve E, [DNA] 0.18 μM, in the presence of 25 mM EDTA.

T1 sequence (P23940 whole entry): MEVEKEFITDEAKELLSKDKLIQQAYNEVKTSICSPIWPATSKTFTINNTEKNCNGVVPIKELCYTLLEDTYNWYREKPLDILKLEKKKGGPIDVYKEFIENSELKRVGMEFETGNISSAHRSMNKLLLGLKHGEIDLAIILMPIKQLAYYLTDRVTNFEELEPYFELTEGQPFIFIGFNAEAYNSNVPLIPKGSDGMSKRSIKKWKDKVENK

For “5′-FITC-NH-CCCCGGATCCACCC-3′ (SEQ ID NO:1) annealed to 3′-GGGGCCTAGGTGGG-5′ (SEQ ID NO:2) (antisense GGGTGGATCCGGGG; sense: DNA, 5' {FITC}, backbone and methylation of C not given here; antisense: DNA, backbone and methylation of C not given here; further chemistry not fully specified) [FITC-labeled DNA Substrates, 14-mer FITC-labeled oligonucleotide with the BamHI restriction site, annealed to its unlabeled complementary strand]”, the “% Cleavage PAGE” value in series [1] (setting [3]) was 100%; in series [1] (setting [4]), 92.3%; in series [1] (setting [5]), 60.6%; in series [1] (setting [6]) it was 30.1%; in series [1] (setting [7]), 0%. The “% Cleavage Fluorescence Assay” value in series [2] (setting [3]) was 100%; in series [2] (setting [4]), 91.9%; in series [2] (setting [5]) it was 59.5%; in series [2] (setting [6]), 32.2%; in series [2] (setting [7]) it was 0%.

B1: F-D1/T1: 5′-TGAGTACCCGTGTGGAAAATCTCTAGCAGGGNCTATGGCGTCCCCTCTG (SEQ ID NO:3); E-D2: 3′-… (SEQ ID NO:4) (nucleic acid)
sense: TGAGTACCCGTGTGGAAAATCTCTAGCAGGGNCTATGGCGTCCCCTCTG
antisense: NACTGCTAGAGATTTTCCACACGGGTACTCA
modifications: FITC and EITC labels, chemistry not fully specified
notes: FITC-labeled 49-mer hybrid strand of HIV-1 U5 end annealed to EITC-labeled partial complementary strand
Turning to B1, the “estimated efficiency of the cleavage reaction by HIV-IN” value in the series with HIV-IN (4 pmol substrate, 40 pmol HIV-IN, 1 hour, 37° C., in the presence of Mg2+, relative to DNase I digestion) is on record as 35%. Further, the “changes in donor fluorescence with Mg2+ relative to Mn2+” value with HIV-IN (7.5 mM Mg2+ vs 7.5 mM Mn2+, end of a 60 minute reaction, intensity normalized) was “approximately 3 times”. Moreover, the “cleavage of substrate by integrase (increase in fluorescence intensity)” value with HIV-IN (in the presence of 20 mM EDTA, 37° C.) is recorded as “not cleaved”.
